{"source": "patent US20060069132A1", "about": "“Azolecarboxamide herbicides” (priority 2004, published 2006)", "key": {"barnyardgrass [1]": {"tested_on": "barnyardgrass", "assay": "Test A pre-/postemergence herbicide test", "format": "in vivo, Echinochloa crus-galli", "settings": "for Plant response rating, Barnyardgrass: Postemergence; for Barnyardgrass plant response rating: Preemergence", "procedure,_shortened": "(§1)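 Visual injury scores on a 0–100 scale (100 = complete control) taken about ten days post-treatment in greenhouse against untreated controls; dash means no result. Treatments: preemergence soil spray and postemergence spray to runoff on one- to two-leaf plants 2 to 10 cm tall, surfactant-containing formulation.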"}, "large crabgrass [2]": {"tested_on": "large crabgrass", "assay": "Test A pre-/postemergence herbicide test", "format": "in vivo, Digitaria sanguinalis", "settings": "for Plant response rating, Crabgrass, Large: Postemergence; for Crabgrass, Large plant response rating: Preemergence", "procedure,_shortened": "as §1"}, "giant foxtail [3]": {"tested_on": "giant foxtail", "assay": "Test A pre-/postemergence herbicide test", "format": "in vivo, Setaria faberi", "settings": "for Plant response rating, Foxtail, Giant: Postemergence; for Foxtail, Giant plant response rating: Preemergence", "procedure,_shortened": "as §1"}, "morningglory [4]": {"tested_on": "morningglory", "assay": "Test A pre-/postemergence herbicide test", "format": "in vivo, Ipomoea spp.", "settings": "for Plant response rating, Morningglory: Postemergence; for Morningglory plant response rating: Preemergence", "procedure,_shortened": "as §1"}, "redroot pigweed": {"tested_on": "redroot pigweed", "assay": "Test A pre-/postemergence herbicide test", "format": "in vivo, Amaranthus retroflexus", "settings": "for Plant response rating, Pigweed: Postemergence; for Pigweed plant response rating: Preemergence", "procedure,_shortened": "as §1"}, "velvetleaf [5]": {"tested_on": "velvetleaf", "assay": "Test A pre-/postemergence herbicide test", "format": "in vivo, Abutilon theophrasti", "settings": "for Velvetleaf plant response rating: Preemergence, visual rating, 0 to 100 scale (0 no effect, 100 complete control)", "procedure,_shortened": "as §1"}, "barnyardgrass [6]": {"tested_on": "barnyardgrass", "assay": "Test B pre-/postemergence herbicide test", "format": "in vivo, Echinochloa crus-galli", "procedure,_shortened": "(§2)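 Species tested were Echinochloa crus-galli, Ipomoea coccinea, Xanthium strumarium and Oryza sativa, treated both before emergence and at the 1- to 4-leaf stage; rice and barnyardgrass were also tested under flooding at 2 leaves. Greenhouse incubation lasted 13–15 days before visual 0–100 scoring.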"}, "Surinam grass": {"tested_on": "Surinam grass", "assay": "Test B pre-/postemergence herbicide test", "format": "in vivo, Urochloa decumbens", "procedure,_shortened": "(§3)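 Pre: seeds sown, then sprayed. Post: 1–4-leaf plants (2–18 cm) sprayed at the same time. Paddy: flooded, treated at 2-leaf stage. Formulation: non-phytotoxic solvent with surfactant. Greenhouse 13–15 days; visual 0–100 score relative to controls.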"}, "cocklebur": {"tested_on": "cocklebur", "assay": "Test B pre-/postemergence herbicide test", "format": "in vivo, Xanthium strumarium", "procedure,_shortened": "as §2"}, "corn": {"tested_on": "corn", "assay": "Test B pre-/postemergence herbicide test", "format": "in vivo, Zea mays", "procedure,_shortened": "as §3"}, "large crabgrass [7]": {"tested_on": "large crabgrass", "assay": "Test B pre-/postemergence herbicide test", "format": "in vivo, Digitaria sanguinalis", "procedure,_shortened": "as §3"}, "giant foxtail [8]": {"tested_on": "giant foxtail", "assay": "Test B pre-/postemergence herbicide test", "format": "in vivo, Setaria faberi", "procedure,_shortened": "as §3"}, "lambsquarters": {"tested_on": "lambsquarters", "assay": "Test B pre-/postemergence herbicide test", "format": "in vivo, Chenopodium album", "procedure,_shortened": "as §3"}, "morningglory [9]": {"tested_on": "morningglory", "assay": "Test B pre-/postemergence herbicide test", "format": "in vivo, Ipomoea coccinea", "settings": "preemergence, 125 g ai/ha; 0 to 100 scale, 0 is no effect, 100 is complete control", "procedure,_shortened": "as §2"}, "pigweed": {"tested_on": "pigweed", "assay": "Test B pre-/postemergence herbicide test", "format": "in vivo, Amaranthus retroflexus", "procedure,_shortened": "as §3"}, "velvetleaf [10]": {"tested_on": "velvetleaf", "assay": "Test B pre-/postemergence herbicide test", "format": "in vivo, Abutilon theophrasti", "procedure,_shortened": "as §3"}, "blackgrass": {"tested_on": "blackgrass", "assay": "Test B postemergence herbicide test", "format": "in vivo, Alopecurus myosuroides", "settings": "scale 0 (no effect) to 100 (complete control)", "procedure,_shortened": "(§4)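 Plants grow to 1- to 4-leaf stage (2–18 cm) for postemergence spraying, or to 2-leaf stage for the paddy test. Formulated compound is applied. Greenhouse holding lasts 13–15 days. Response is scored visually relative to controls, 0 no effect to 100 complete control; a dash means no result.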"}, "wheat": {"tested_on": "wheat", "assay": "Test B postemergence herbicide test", "format": "in vivo, Triticum aestivum", "design": "key to Wheat plant response rating: 0 = no effect, 100 = complete control", "settings": "scale 0 (no effect) to 100 (complete control)", "procedure,_shortened": "(§5)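 Visual ratings, 0 (no effect) to 100 (complete control), made versus controls after 13–15 d greenhouse. Paddy plants treated at 2-leaf stage; postemergence plants at 1- to 4-leaf stage, 2–18 cm tall.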"}, "wild oat": {"tested_on": "wild oat", "assay": "Test B postemergence herbicide test", "format": "in vivo, Avena fatua", "settings": "scale 0 (no effect) to 100 (complete control)", "procedure,_shortened": "as §5"}, "rice": {"tested_on": "rice", "assay": "Test B flooded paddy test", "format": "in vivo, Oryza sativa", "settings": "1000 g ai/ha, visual rating, scale 0 to 100 (0 no effect, 100 complete control), 13 to 15 days", "procedure,_shortened": "as §4"}, "[11]": {"tested_on": "small flower umbrella sedge", "assay": "Test B flooded paddy test", "format": "in vivo, Cyperus difformis", "settings": "1000 g ai/ha, visual rating, scale 0 to 100 (0 no effect, 100 complete control), 13 to 15 days", "procedure,_shortened": "as §4"}, "ducksalad": {"tested_on": "ducksalad", "assay": "Test B flooded paddy test", "format": "in vivo, Heteranthera limosa", "settings": "1000 g ai/ha, visual rating, scale 0 to 100 (0 no effect, 100 complete control), 13 to 15 days", "procedure,_shortened": "as §4"}, "barnyardgrass [12]": {"tested_on": "barnyardgrass", "assay": "Test B flooded paddy test", "format": "in vivo, Echinochloa crus-galli", "settings": "1000 g ai/ha, visual rating, scale 0 to 100 (0 no effect, 100 complete control), 13 to 15 days", "procedure,_shortened": "as §4"}, "[13]": {"settings": "500 g ai/ha, 0 to 100 scale, 0 no effect, 100 complete control"}, "[14]": {"settings": "2000 g ai/ha, 0 to 100 scale, 0 no effect, 100 complete control"}, "[15]": {"settings": "500 g ai/ha, visual rating, 0 to 100 scale (0 no effect, 100 complete control)"}, "[16]": {"settings": "Postemergence, 500 g ai/ha, visual rating after 13 to 15 days, scale 0 (no effect) to 100 (complete control)"}, "[17]": {"settings": "Preemergence, 500 g ai/ha, scale 0 to 100"}, "[18]": {"settings": "postemergence, 125 g ai/ha, visual rating, scale 0 (no effect) to 100 (complete control)"}, "[19]": {"settings": "preemergence, 125 g ai/ha, 0 to 100 scale, 0 is no effect, 100 is complete control"}, "[20]": {"settings": "Postemergence, 500 g ai/ha, visual rating after 13 to 15 days"}, "[21]": {"settings": "postemergence, 125 g ai/ha, visual rating"}}, "data": [{"smiles": "C=Cn1nc(C(C)(C)C)cc1C(=O)Nc1cccc(C(=O)OCC)c1", "note": "[Compound 78]", "values": [{"measurement": "Plant response rating, Barnyardgrass", "setting": "barnyardgrass [1]; [13]", "result": 30}, {"measurement": "Plant response rating, Barnyardgrass", "setting": "barnyardgrass [1]; [14]", "result": 40}, {"measurement": "Barnyardgrass plant response rating", "setting": "barnyardgrass [1]; [15]", "result": 20}, {"measurement": "Barnyardgrass plant response rating", "setting": "barnyardgrass [1]; [14]", "result": 45}, {"measurement": "Plant response rating, Crabgrass, Large", "setting": "large crabgrass [2]; [13]", "result": 20}, {"measurement": "Plant response rating, Crabgrass, Large", "setting": "large crabgrass [2]; [14]", "result": 35}, {"measurement": "Crabgrass, Large plant response rating", "setting": "large crabgrass [2]; [15]", "result": 60}, {"measurement": "Crabgrass, Large plant response rating", "setting": "large crabgrass [2]; [14]", "result": 90}, {"measurement": "Plant response rating, Foxtail, Giant", "setting": "giant foxtail [3]; [13]", "result": 20}, {"measurement": "Plant response rating, Foxtail, Giant", "setting": "giant foxtail [3]; [14]", "result": 60}, {"measurement": "Foxtail, Giant plant response rating", "setting": "giant foxtail [3]; [15]", "result": 55}, {"measurement": "Foxtail, Giant plant response rating", "setting": "giant foxtail [3]; [14]", "result": 70}, {"measurement": "Plant response rating, Morningglory", "setting": "morningglory [4]; [13]", "result": 15}, {"measurement": "Plant response rating, Morningglory", "setting": "morningglory [4]; [14]", "result": 25}, {"measurement": "Morningglory plant response rating", "setting": "morningglory [4]; [15]", "result": 25}, {"measurement": "Morningglory plant response rating", "setting": "morningglory [4]; [14]", "result": 40}, {"measurement": "Plant response rating, Pigweed", "setting": "redroot pigweed; [13]", "result": 85}, {"measurement": "Plant response rating, Pigweed", "setting": "redroot pigweed; [14]", "result": 90}, {"measurement": "Pigweed plant response rating", "setting": "redroot pigweed; [15]", "result": 80}, {"measurement": "Pigweed plant response rating", "setting": "redroot pigweed; [14]", "result": 90}, {"measurement": "Plant response rating, Velvetleaf", "setting": "velvetleaf [5]; Postemergence, 2000 g ai/ha, 0 to 100 scale, 0 no effect, 100 complete control", "result": 50}, {"measurement": "Velvetleaf plant response rating", "setting": "velvetleaf [5]; 500 g ai/ha", "result": 30}, {"measurement": "Velvetleaf plant response rating", "setting": "velvetleaf [5]; 2000 g ai/ha", "result": 50}, {"measurement": "Plant response rating, Barnyardgrass", "setting": "barnyardgrass [6]; [16]", "result": 30}, {"measurement": "Barnyardgrass plant response rating", "setting": "barnyardgrass [6]; [17]", "result": 0}, {"measurement": "Barnyardgrass plant response rating", "setting": "barnyardgrass [6]; [18]", "result": 30}, {"measurement": "Plant response rating, Barnyardgrass", "setting": "barnyardgrass [6]; [19]", "result": 0}, {"measurement": "Plant response rating, Surinam Grass", "setting": "Surinam grass; [16]", "result": 20}, {"measurement": "Surinam Grass plant response rating", "setting": "Surinam grass; [18]", "result": 20}, {"measurement": "Plant response rating, Surinam Grass", "setting": "Surinam grass; [19]", "result": 0}, {"measurement": "Plant response rating, Cocklebur", "setting": "cocklebur; [16]", "result": 100}, {"measurement": "Cocklebur plant response rating", "setting": "cocklebur; [17]", "result": 0}, {"measurement": "Cocklebur plant response rating", "setting": "cocklebur; [18]", "result": 80}, {"measurement": "Plant response rating, Cocklebur", "setting": "cocklebur; [19]", "result": 0}, {"measurement": "Corn plant response rating", "setting": "corn; [17]", "result": 0}, {"measurement": "Plant response rating, Corn", "setting": "corn; [19]", "result": 0}, {"measurement": "Plant response rating, Crabgrass, Large", "setting": "large crabgrass [7]; [16]", "result": 30}, {"measurement": "Crabgrass, Large plant response rating", "setting": "large crabgrass [7]; [17]", "result": 10}, {"measurement": "Crabgrass, Large plant response rating", "setting": "large crabgrass [7]; [18]", "result": 20}, {"measurement": "Plant response rating, Crabgrass, Large", "setting": "large crabgrass [7]; [19]", "result": 0}, {"measurement": "Plant response rating, Foxtail, Giant", "setting": "giant foxtail [8]; [16]", "result": 30}, {"measurement": "Foxtail, Giant plant response rating", "setting": "giant foxtail [8]; [17]", "result": 30}, {"measurement": "Foxtail, Giant plant response rating", "setting": "giant foxtail [8]; [18]", "result": 30}, {"measurement": "Plant response rating, Foxtail, Giant", "setting": "giant foxtail [8]; [19]", "result": 10}, {"measurement": "Plant response rating, Lambsquarters", "setting": "lambsquarters; [16]", "result": 80}, {"measurement": "Lambsquarters plant response rating", "setting": "lambsquarters; [18]", "result": 70}, {"measurement": "Plant response rating, Lambsquarters", "setting": "lambsquarters; [19]", "result": 0}, {"measurement": "Plant response rating, Morningglory", "setting": "morningglory [9]", "result": 0}, {"measurement": "Plant response rating, Pigweed", "setting": "pigweed; [16]", "result": 90}, {"measurement": "Pigweed plant response rating", "setting": "pigweed; [18]", "result": 80}, {"measurement": "Plant response rating, Pigweed", "setting": "pigweed; [19]", "result": 0}, {"measurement": "Plant response rating, Velvetleaf", "setting": "velvetleaf [10]; [16]", "result": 80}, {"measurement": "Velvetleaf plant response rating", "setting": "velvetleaf [10]; [18]", "result": 70}, {"measurement": "Plant response rating, Velvetleaf", "setting": "velvetleaf [10]; [19]", "result": 10}, {"measurement": "Plant response rating, Blackgrass", "setting": "blackgrass; [20]", "result": 30}, {"measurement": "Blackgrass plant response rating", "setting": "blackgrass; [21]", "result": 20}, {"measurement": "Plant response rating, Wheat", "setting": "wheat; [20]", "result": 30}, {"measurement": "Wheat plant response rating", "setting": "wheat; [21]", "result": 30}, {"measurement": "Plant response rating, Oat, Wild", "setting": "wild oat; [20]", "result": 20}, {"measurement": "Oat, Wild plant response rating", "setting": "wild oat; [21]", "result": 10}, {"measurement": "Rice plant response rating", "setting": "rice", "result": 40}, {"measurement": "Sedge, Umbrella plant response rating", "setting": "[11]", "result": 80}, {"measurement": "Ducksalad plant response rating", "setting": "ducksalad", "result": 30}, {"measurement": "Barnyardgrass plant response rating", "setting": "barnyardgrass [12]", "result": 30}]}]}
